Assay results as given in the Deep4Chem optical property database.

Assay: solvent given as SMILES

Row | Structure (SMILES) | emission maximum (in C1CCOC1) [nm] | emission maximum (in Cc1ccccc1) [nm] | emission maximum (in ClC(Cl)Cl) [nm] | emission maximum (in CC#N) [nm] | emission maximum (in CS(C)=O) [nm] | emission maximum (in ClCCl) [nm] | other results
1 | COc1ccc2n1[B-](F)(F)[N+]1=C(c3ccccc3)C=CC1=C2c1ccc(C)cc1 | 555 | 558 | 557 | – | – | – | emission maximum (in C1CCCCC1): 553 nm; emission maximum (in C1COCCO1): 556 nm; emission maximum (in CCOC(C)=O): 552 nm; emission maximum (in CO): 550 nm
2 | OCC1O[C@@H](Cc2cc(O)cc(/C=C/c3ccc(O)c(O)c3)c2)[C@H](O)[C@@H](O)[C@@H]1O (some centres not stated) | 375 | 371 | 373 | 387 | 381 | – | emission maximum (in C1COCCO1): 370 nm; emission maximum (in CC(C)=O): 376 nm; emission maximum (in CCCCO): 385 nm; emission maximum (in CCCO): 386 nm; emission maximum (in CCO): 390 nm; emission maximum (in CCOC(C)=O): 372 nm; emission maximum (in CCOCC): 372 nm; emission maximum (in CN(C)C=O): 378 nm; emission maximum (in CO): 394 nm; emission maximum (in O): 403 nm
3 | COc1ccc2c(-c3nc(-c4ccccc4F)no3)cc(=O)oc2c1 | – | – | 453 | – | – | – | emission maximum (in CCO): 464 nm
4 | O=c1c2cc(F)c(N3CCOCC3)cc2sc2cc(N3CCOCC3)c(F)cc12 | – | – | – | – | – | – | emission maximum (in CCO): 481 nm
5 | Cc1cccn2c1cc1c3ccccc3nc(-c3ccco3)c12 | – | – | – | – | 502 | – | –
6 | COc1cc(OC)cc(C2=CC(c3ccccc3)=C(c3ccccc3)C2)c1 | – | – | – | – | – | 449 | –
7 | CC[NH+](CC)c1ccc(-c2nc3c(nc2-c2ccc(B(c4c(C)cc(C)cc4C)c4c(C)cc(C)cc4C)cc2)c2ccccc2n3C)cc1 | 428.33 | – | – | – | – | – | –
8 | Cc1cc(C)c([B-]2(c3c(C)cc(C)cc3C)[O+]=P(c3ccccc3)(c3ccccc3)c3cc(-c4ccc(C(F)(F)F)cc4)sc3-c3sc(-c4ccc(C(F)(F)F)cc4)cc32)c(C)c1 | 468 | – | – | – | – | – | –
9 | CN(CCO)c1ccc(/C=C/C2=CC(=C(C#N)C#N)CC(C)(C)C2)cc1 | – | – | 612 | 651 | – | 634 | emission maximum (in CC(C)=O): 648 nm; emission maximum (in CCCCO): 649 nm; emission maximum (in c1ccccc1): 588 nm
10 | CCCCCCCCCCCCn1cccc1/C=C/c1ccc(OCCCC)c2c(/C=C/c3cccn3CCCCCCCCCCCC)ccc(OCCCC)c12 | – | 490 | – | – | – | – | –
11 | O=C1CCCC2=C1C(c1cccc(Cl)c1)c1c(c3ccccc3oc1=O)N2 (configuration not stated) | – | – | – | – | 443 | – | –
12 | CN(C)CCNc1ccc([N+](=O)[O-])cc1[N+](=O)[O-] | 389 | 385 | 389 | 399 | 417 | 393 | emission maximum (in C1CCCCC1): 368 nm; emission maximum (in C1COCCO1): 385 nm; emission maximum (in CC(C)=O): 401 nm; emission maximum (in CCCCCC): 363 nm; emission maximum (in CCO): 394 nm; emission maximum (in CCOC(C)=O): 384 nm; emission maximum (in CN(C)C=O): 406 nm; emission maximum (in CO): 389 nm
13 | CCCCCCc1ccc2c(/C=N/c3ccc(/N=C/c4c(O)ccc5cc(CCCCCC)ccc45)cc3)c(O)ccc2c1 | 542 | 546 | – | 539 | – | 546 | –
14 | COc1ccc2c(c1)c1c(OC)c3ccccc3c(OC)c1n2C | – | – | – | 445 | – | 443 | emission maximum (in C1CCCCC1): 431 nm; emission maximum (in CO): 441 nm
15 | O=c1oc2ccccc2cc1-c1cc2ccccc2o1 | – | 431 | – | 442 | 450 | – | emission maximum (in CCOC(C)=O): 433 nm; emission maximum (in O): 475 nm
16 | N#Cc1cc2ccccc2oc1=N | 409 | – | 411 | 407 | 406 | – | emission maximum (in CCOC(C)=O): 410 nm
17 | Cc1ccc(-n2c(C)ccc2C)cc1 | – | – | – | 409 | – | – | emission maximum (in CCCCCC): 337 nm
18 | Clc1ccc2nc3cc4ccccc4cc3c(-c3ccccc3)c2c1 | – | – | – | – | – | 527 | –
